Data set [1] can be described thus: Acute toxicity test by intraperitoneal administration. To be noted: mouse, in vivo, ip, ICR male mice, 1 week observation. As to the method:
Acute toxicity test was conducted by intraperitoneal administration using a group of twenty ICR male mice (4 weeks old, body weight around 20 g).
LD50 value was calculated by the Richfield-Willcokson method from a lethal ratio observing the fate of mice during 1 week after administration of a test compound.

In another data set the test system is mouse leukemia L1210. Description: Antitumor activity for L1210 (life prolonging effect, mouse leukemia transplanted intraperitoneally). It counts as in vivo. The settings on record: for minimal effective dose: Mus musculus, L1210, ip, denominator of therapeutic index, i.p. total dose, read-out: Minimum effective dose; for 40-day survivors: at optimum dose, group of six female CDF1 mice; for Therapeutic Index (Maximum tolerable dose/Minimum effective dose): i.p., L1210, CDF1 mice. As to the method: (§1) 5×10^5 cells of mouse leukemia L1210 were transplanted intraperitoneally to a group of six female CDF1 mice (7 weeks old, body weight 17-19 g). The test compound was administered intraperitoneally on day 1, 5 and 9 and its life prolonging effect was observed.
(§2) In a case of the administration of a test compound as an acid addition salt the test compound was dissolved in water. The total administration amount was 1.56 mg/kg-400 mg/kg. The antitumor activity was expressed by the value (T/C%) wherein T denotes the mean survival days in the drug administered group and C denotes those in the non administered group. In case of equal to or more than 125% the drug is considered to be effective.

Assay in data set [2]: as above
In kind it is in vivo. The settings on record: mouse, in vivo, ip; numerator of therapeutic index; i.p. total dose; read-out: Maximum tolerable dose. As to the method:
as §1, §2

A short description of another data set: Water solubility. It counts as physicochemical.

≈ marks a conversion by molar mass, not a printed value.

On to `CCc1c2c(nc3cc(F)c(C)cc13)-c1cc([C@@](O)(CC)C(=O)NCCN(C)C)c(COC(=O)c3ccc(OC)cc3)c(=O)n1C2` [Compound C26], for which the LD50 at 168 h in data set [1] was found to be 113 mg/kg. Further, in the data set on mouse leukemia L1210, the minimal effective dose stood at 12.5 mg/kg, the 40-day survivors was 0/6 and the “Therapeutic Index (Maximum tolerable dose/Minimum effective dose)” value is above 4. Further, the MTD in data set [2] amounted to 50 mg/kg. The same compound came in with a solubility in the data set “Water solubility” of 9 mg/mL (≈ 14.3 mM).
With `CCCC(=O)OCc1c([C@@](O)(CC)C(=O)NCCN(C)C)cc2n(c1=O)Cc1c-2nc2cc(F)c(C)cc2c1CC` [Compound C24], the LD50 at 168 h in data set [1] came to 203 mg/kg. Moreover, in the data set with mouse leukemia L1210, the minimal effective dose came to 1.56 mg/kg, the 40-day survivors is 1/6 and the “Therapeutic Index (Maximum tolerable dose/Minimum effective dose)” value was above 16. In data set [2], the MTD worked out at 25 mg/kg. Further, the solubility in the data set “Water solubility” came to 42 mg/mL (≈ 74.1 mM).
For `CCc1c2c(nc3cc(F)ccc13)-c1cc([C@@](O)(CC)C(=O)NCCN(C)C)c(COC(=O)c3ccc(OC)cc3)c(=O)n1C2` [Compound C11], the median lethal dose (LD50) at 168 h in data set [1] stood at 146 mg/kg. In addition, in the data set on mouse leukemia L1210, the minimal effective dose was 6.25 mg/kg, the 40-day survivors is given as 0/6 and the “Therapeutic Index (Maximum tolerable dose/Minimum effective dose)” value was determined as 8. In addition, in data set [2], the MTD was 50 mg/kg. This compound came in with a solubility in “Water solubility” of 8 mg/mL (≈ 13 mM).
`CCCC(=O)OCc1c([C@@](O)(CC)C(=O)NCCN(C)C)cc2n(c1=O)Cc1c-2nc2ccc(O)cc2c1CC` [Compound C30]: in data set [1], the LD50 at 168 h is 362 mg/kg. In the data set with mouse leukemia L1210, the minimal effective dose stood at 6.25 mg/kg, the 40-day survivors is on record as 0/6 and the “Therapeutic Index (Maximum tolerable dose/Minimum effective dose)” value is recorded as 32. Besides, the MTD in data set [2] was 200 mg/kg. Besides, in the data set “Water solubility”, the solubility was above 58 mg/mL.
Compound `CCc1c2c(nc3ccc(O)cc13)-c1cc([C@@](O)(CC)C(=O)NCCN(C)C)c(COC(=O)c3cccc(F)c3)c(=O)n1C2` [Compound C38] returned an LD50 at 168 h in data set [1] of 421 mg/kg. In the data set on mouse leukemia L1210, the minimal effective dose was determined as 12.5 mg/kg, the 40-day survivors is listed as 0/6 and the “Therapeutic Index (Maximum tolerable dose/Minimum effective dose)” value amounted to 16. In addition, the MTD in data set [2] was found to be 200 mg/kg. The solubility in “Water solubility” amounted to 6 mg/mL (≈ 9.96 mM).
`CCC(=O)OCc1c([C@@](O)(CC)C(=O)NCCN(C)C)cc2n(c1=O)Cc1c-2nc2cc(F)ccc2c1CC` [Compound C8] showed an LD50 at 168 h in data set [1] of 124 mg/kg. For the same compound, in the data set with mouse leukemia L1210, the minimal effective dose was 1.56 mg/kg, the 40-day survivors is listed as 4/6 and the “Therapeutic Index (Maximum tolerable dose/Minimum effective dose)” value is recorded as 8. Moreover, in data set [2], the MTD came out at 12.5 mg/kg. In “Water solubility”, this compound had a solubility of 20 mg/mL (≈ 37.1 mM).
Compound `CCC(=O)OCc1c([C@@](O)(CC)C(=O)NCCN(C)C)cc2n(c1=O)Cc1c-2nc2ccc(Cl)cc2c1CC` [Compound C3] showed an LD50 at 168 h in data set [1] of 186 mg/kg. Moreover, in the data set on mouse leukemia L1210, the minimal effective dose was below 1.56 mg/kg, the 40-day survivors is listed as 1/6 and the “Therapeutic Index (Maximum tolerable dose/Minimum effective dose)” value is above 4. For the same compound, the MTD in data set [2] is 6.25 mg/kg. In “Water solubility”, this compound gave a solubility of 29 mg/mL (≈ 52.2 mM).
`CCc1c2c(nc3cc(F)ccc13)-c1cc([C@@](O)(CC)C(=O)NCCN(C)C)c(COC(=O)CCSC)c(=O)n1C2` [Compound C10] had an LD50 at 168 h in data set [1] of 146 mg/kg. Also, in the data set on mouse leukemia L1210, the minimal effective dose is 1.56 mg/kg, the 40-day survivors is reported as 1/6 and the “Therapeutic Index (Maximum tolerable dose/Minimum effective dose)” value worked out at 8. Moreover, the MTD in data set [2] was found to be 12.5 mg/kg. The same compound displayed a solubility in the data set “Water solubility” above 62 mg/mL.
Regarding `CCc1c2c(nc3cc(Cl)ccc13)-c1cc([C@@](O)(CC)C(=O)NCCN(C)C)c(COC(=O)CCSC)c(=O)n1C2` [Compound C12], the LD50 at 168 h in data set [1] is 284 mg/kg. In the data set with mouse leukemia L1210, the minimal effective dose amounted to 6.25 mg/kg and the 40-day survivors is given as 1/6. The MTD in data set [2] was 25 mg/kg. The compound also displayed a solubility in “Water solubility” above 64 mg/mL.
For the compound `CCOc1ccc2nc3c(c(C)c2c1)Cn1c-3cc([C@@](O)(CC)C(=O)NCCN(C)C)c(COC(=O)CCSC)c1=O` [Compound C1], the LD50 at 168 h in data set [1] worked out at 164 mg/kg. In the data set with mouse leukemia L1210, the minimal effective dose worked out at 1.56 mg/kg, the 40-day survivors was 0/6 and the “Therapeutic Index (Maximum tolerable dose/Minimum effective dose)” value came out at 4. For the same compound, the MTD in data set [2] was determined as 6.25 mg/kg. This compound returned a solubility in the data set “Water solubility” above 64 mg/mL.
As for `CCCC(=O)OCc1c([C@@](O)(CC)C(=O)NCCN(C)C)cc2n(c1=O)Cc1c-2nc2ccc(Cl)cc2c1CC` [Compound C4], the LD50 at 168 h in data set [1] was 142 mg/kg. Also, in the data set with mouse leukemia L1210, the minimal effective dose was below 1.56 mg/kg, the 40-day survivors is recorded as 1/6 and the “Therapeutic Index (Maximum tolerable dose/Minimum effective dose)” value is given as above 4. Besides, in data set [2], the MTD was 6.25 mg/kg. The compound also displayed a solubility in “Water solubility” of 41 mg/mL (≈ 72 mM).
Compound `CCC(=O)OCc1c([C@@](O)(CC)C(=O)NCCN(C)C)cc2n(c1=O)Cc1c-2nc2cc(F)c(OC)cc2c1CC` [Compound C20] registered an LD50 at 168 h in data set [1] of 84.5 mg/kg. Moreover, in the data set with mouse leukemia L1210, the minimal effective dose was below 1.56 mg/kg, the 40-day survivors is listed as 0/6 and the “Therapeutic Index (Maximum tolerable dose/Minimum effective dose)” value was above 2. In data set [2], the MTD came out at 3.13 mg/kg. The same compound gave a solubility in “Water solubility” above 60 mg/mL.
Turning to `CCc1c2c(nc3ccc(O)cc13)-c1cc([C@@](O)(CC)C(=O)NCCN(C)C)c(COC(=O)c3ccc(F)cc3)c(=O)n1C2` [Compound C36], the LD50 at 168 h in data set [1] turned out to be 477 mg/kg. Moreover, in the data set on mouse leukemia L1210, the minimal effective dose worked out at 12.5 mg/kg, the 40-day survivors is 0/6 and the “Therapeutic Index (Maximum tolerable dose/Minimum effective dose)” value is 16. In data set [2], the MTD stood at 200 mg/kg. For the same compound, the concentration in solution in “Water solubility” (solubility) was 17 mg/mL (≈ 28.2 mM).
In the case of `CCc1c2c(nc3cc(F)c(C)cc13)-c1cc([C@@](O)(CC)C(=O)NCCN(C)C)c(COC(=O)CCSC)c(=O)n1C2` [Compound C25], the LD50 at 168 h in data set [1] was 154 mg/kg. In the data set on mouse leukemia L1210, the minimal effective dose was below 1.56 mg/kg, the 40-day survivors is 1/6 and the “Therapeutic Index (Maximum tolerable dose/Minimum effective dose)” value is reported as above 8. In addition, the MTD in data set [2] amounted to 12.5 mg/kg. This compound had a solubility in the data set “Water solubility” above 63 mg/mL.
In turn, `CCC(=O)OCc1c([C@@](O)(CC)C(=O)NCCN(C)C)cc2n(c1=O)Cc1c-2nc2cc(Cl)c(Cl)cc2c1CC` [Compound C17] yielded an LD50 at 168 h in data set [1] of 112 mg/kg. In the data set on mouse leukemia L1210, the minimal effective dose came out at 1.56 mg/kg, the 40-day survivors is 2/6 and the “Therapeutic Index (Maximum tolerable dose/Minimum effective dose)” value turned out to be 4. Further, the MTD in data set [2] was 6.25 mg/kg. Besides, the solubility in the data set “Water solubility” is above 64 mg/mL.
Consider `CCc1c2c(nc3cc(Cl)c(Cl)cc13)-c1cc([C@@](O)(CC)C(=O)NCCN(C)C)c(COC(=O)CCSC)c(=O)n1C2` [Compound C19], for which the LD50 at 168 h in data set [1] came out at 94.8 mg/kg. In the data set on mouse leukemia L1210, the minimal effective dose was below 1.56 mg/kg, the 40-day survivors is 0/6 and the “Therapeutic Index (Maximum tolerable dose/Minimum effective dose)” value is above 2. Moreover, the MTD in data set [2] was 3.13 mg/kg. Besides, the solubility in the data set “Water solubility” was found to be 24 mg/mL (≈ 37.8 mM).
`CCCC(=O)OCc1c([C@@](O)(CC)C(=O)NCCN(C)C)cc2n(c1=O)Cc1c-2nc2cc(Cl)c(Cl)cc2c1CC` [Compound C18]: the LD50 at 168 h in data set [1] worked out at 92.3 mg/kg. For the same compound, in the data set with mouse leukemia L1210, the minimal effective dose was below 1.56 mg/kg, the 40-day survivors is 0/6 and the “Therapeutic Index (Maximum tolerable dose/Minimum effective dose)” value is above 2. Besides, the MTD in data set [2] was 3.13 mg/kg. In the data set “Water solubility”, this compound yielded a solubility of 35 mg/mL (≈ 58 mM).
The compound `CCc1c2c(nc3ccc(O)cc13)-c1cc([C@@](O)(CC)C(=O)NCCN(C)C)c(COC(=O)CCSC)c(=O)n1C2` [Compound C32] registered an LD50 at 168 h in data set [1] of 307 mg/kg. Besides, in the data set on mouse leukemia L1210, the minimal effective dose was 6.25 mg/kg, the 40-day survivors is reported as 0/6 and the “Therapeutic Index (Maximum tolerable dose/Minimum effective dose)” value stood at 32. The MTD in data set [2] was found to be 200 mg/kg. Also, the solubility in “Water solubility” was above 62 mg/mL.
With `CCc1c2c(nc3ccc(Br)cc13)-c1cc([C@@](O)(CC)C(=O)NCCN(C)C)c(COC(=O)CCSC)c(=O)n1C2` [Compound C6], the LD50 at 168 h in data set [1] is 116 mg/kg. In the data set with mouse leukemia L1210, the minimal effective dose is below 1.56 mg/kg, the 40-day survivors is 1/6 and the “Therapeutic Index (Maximum tolerable dose/Minimum effective dose)” value is on record as above 4. The MTD in data set [2] worked out at 6.25 mg/kg. The compound further displayed a solubility in “Water solubility” of 25 mg/mL (≈ 38.7 mM).
In turn, `CCc1c2c(nc3cc(F)c(F)cc13)-c1cc([C@@](O)(CC)C(=O)NCCN(C)C)c(COC(=O)c3ccc(OC)cc3)c(=O)n1C2` [Compound C16] displayed an LD50 at 168 h in data set [1] of 65.6 mg/kg. In the data set on mouse leukemia L1210, the minimal effective dose is 6.25 mg/kg, the 40-day survivors was 0/6 and the “Therapeutic Index (Maximum tolerable dose/Minimum effective dose)” value amounted to 2. For the same compound, the MTD in data set [2] is 12.5 mg/kg. Further, the solubility in “Water solubility” stood at 6 mg/mL (≈ 9.45 mM).

(Values after US5843954A, “Camptothecin derivatives, preparations thereof and antitumor agents” (priority 1994, dated 1998).)
